Test results taken from patent US20250025568A1, “COMBINATION OF ANTIBODY-DRUG CONJUGATE AND PARP1 SELECTIVE INHIBITOR” (AstraZeneca UK Limited, priority 2021, published 2025).

What was measured:
[1] = tested on: CTG-3303 TNBC PDX; test: Antitumor test in vivo, TNBC patient derived xenograft model (Example 5); set-up: species or system Female Nude mice; details: for TGI % day 46: CTG-3303 TNBC PDX; for percentage of mice achieving a complete response (tumor volume <20 mm^3): day 46 post treatment
Source text: Female Nude mice (Charles River) aged 5-8 weeks were used, following 7 days acclimatisation before entry into the study. The human patient-derived xenograft (PDX) model, CTG-3303, was established from fragments of freshly resected tumor of a triple negative breast cancer (TNBC) patient whom relapsed on treatment with PARP inhibitor talazoparib. This PDX was obtained in accordance with appropriate consent procedures. This TNBC PDX model was subcutaneously passaged in vivo as fragments from animal to animal in nude mice. When tumors reached approximately 250 mm^3, similar-sized tumors were randomly assigned to treatment groups as shown in Table 8:
(§1) The dose of compound for each animal was calculated based on the individual body weight on the day of dosing. DS-1062 and AZD5305 were dosed on the same day, with DS-1062 being administered approximately 5 hour post the PO dose of AZD5305. DS-1062 was administered as a single dose at 10 mg/kg on day 1, and AZD5305 was administered at 1 mg/kg QD for 21 days. Duration of dosing was for 21 days.
(§2) Tumor growth inhibition (TGI) was calculated as follows:
(§3) where MTV=mean tumor volume.
(§4) Statistical significance was evaluated using one-tailed t-test of (log (relative tumor volume)=log (final vol/start vol)) at the day of final measure, comparing to vehicle control.
In addition, the percentage of mice in each treatment group achieving a complete response (defined as tumor volume <20 mm^3) at day 46 post treatment were calculated and shown in FIG. 19B. Monotherapy with DS-1062 at 10 mg/kg led to 1 out 8 mice (12.5%) achieving a complete response at day 46 post treatment. AZD5305 monotherapy led to 0 out 8 mice (0%) achieving a complete response at day 46 post treatment. Combination treatment of AZD5305 with DS-1062 at 10 mg/kg led to 2 out 8 mice (25%) achieving a complete response at day 46 post treatment and led to higher complete response rates than either respective monotherapy.

[2] = tested on: NCI-N87 xenograft (gastric cancer cell line); test: Antitumor test in vivo, NCI-N87 xenograft model (Example 4); set-up: species or system Female Nude mice
Experimental: (§5) Female Nude mice (Charles River) aged 5-8 weeks were used, following 7 days acclimatisation before entry into the study. 5×10^6 NCI-N87 tumor cells (gastric cancer cell line) (1:1 in Matrigel) were implanted subcutaneously onto the flank of the female Nude mice. When tumors reached approximately 250 mm^3, similar-sized tumors were randomly assigned to treatment groups as shown in Table 6:
as §1, §2, §3, §4

[3] = tested on: BRCA2 −/− DLD-1; details: 4 day compound dosing; read-out: BRCA2 −/− DLD-1 prolif 4 d IC50; cited from earlier work
[4] = tested on: NCI-N87 xenograft (gastric cancer cell line); test: Antitumor test (dose titration) in vivo, NCI-N87 xenograft model (Example 6); set-up: species or system Female Nude mice
Experimental: as §5, with “10:” for “6:”
as §1, with “administered at 1, 0.1 or 0.01 mg/kg QD” for “administered at 1 mg/kg QD”

[5] = tested on: NCI-N87 xenograft (gastric cancer cell line); test: Antitumor test (dose regimen optimization) in vivo, NCI-N87 xenograft model (Example 7); set-up: species or system Female Nude mice
Experimental: as §5, with “12:” for “6:”
The dose of compound for each animal was calculated based on the individual body weight on the day of dosing. […]

[6] = tested on: WT DLD-1; details: 4 day compound dosing; read-out: WT DLD-1 prolif 4 d IC50; cited from earlier work
[7] = tested on: CTG-3718 ovarian PDX; test: Antitumor test in vivo, CTG-3718 xenograft model (Example 8); set-up: species or system nude mice
Source text: The human patient-derived xenograft (PDX) model, CTG-3718, was established from fragments of freshly resected tumor of an ovarian cancer patient who relapsed on treatment with PARP inhibitor talazoparib. This PDX was obtained in accordance with appropriate consent procedures. This ovarian PDX model was subcutaneously passaged in vivo as fragments from animal to animal in nude mice. When tumors reached approximately 250 mm^3, similar-sized tumors were randomly assigned to treatment groups as shown in Table 14: […]

[8] = target: hERG (Homo sapiens, UniProt Q12809); details: cited from earlier work
hERG, sequence (Q12809 whole entry): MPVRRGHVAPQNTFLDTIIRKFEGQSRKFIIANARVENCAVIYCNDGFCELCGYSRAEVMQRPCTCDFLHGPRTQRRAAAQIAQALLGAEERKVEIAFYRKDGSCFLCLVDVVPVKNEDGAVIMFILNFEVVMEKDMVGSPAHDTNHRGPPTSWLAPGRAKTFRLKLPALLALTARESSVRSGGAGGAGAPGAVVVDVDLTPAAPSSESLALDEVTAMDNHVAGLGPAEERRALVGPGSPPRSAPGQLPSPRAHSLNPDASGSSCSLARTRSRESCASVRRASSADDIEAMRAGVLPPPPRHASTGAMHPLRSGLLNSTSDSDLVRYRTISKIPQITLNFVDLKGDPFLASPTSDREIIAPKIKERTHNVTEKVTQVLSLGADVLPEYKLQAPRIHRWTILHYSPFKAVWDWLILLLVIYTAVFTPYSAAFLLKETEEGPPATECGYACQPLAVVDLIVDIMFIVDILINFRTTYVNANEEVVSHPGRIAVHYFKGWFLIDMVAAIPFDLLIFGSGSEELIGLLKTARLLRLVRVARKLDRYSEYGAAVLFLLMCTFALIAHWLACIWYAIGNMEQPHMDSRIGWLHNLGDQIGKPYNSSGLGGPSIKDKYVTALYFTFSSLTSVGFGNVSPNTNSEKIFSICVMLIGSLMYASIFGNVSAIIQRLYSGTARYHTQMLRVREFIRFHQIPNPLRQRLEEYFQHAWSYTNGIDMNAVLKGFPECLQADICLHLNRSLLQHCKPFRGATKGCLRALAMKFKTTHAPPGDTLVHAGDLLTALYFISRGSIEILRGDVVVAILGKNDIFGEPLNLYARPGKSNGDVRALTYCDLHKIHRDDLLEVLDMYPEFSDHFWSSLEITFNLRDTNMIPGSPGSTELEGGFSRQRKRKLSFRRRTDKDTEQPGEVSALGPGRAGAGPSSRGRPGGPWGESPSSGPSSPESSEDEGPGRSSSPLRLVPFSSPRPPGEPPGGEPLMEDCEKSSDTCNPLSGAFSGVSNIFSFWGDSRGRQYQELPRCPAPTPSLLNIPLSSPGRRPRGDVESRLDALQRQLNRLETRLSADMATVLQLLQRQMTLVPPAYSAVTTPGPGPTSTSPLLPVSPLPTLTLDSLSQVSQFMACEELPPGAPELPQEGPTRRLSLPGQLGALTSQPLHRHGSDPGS

[9] = AZD5305 1 mg/kg PO QD for 21 days, 1 mg/kg
[10] = DS-1062 10 mg/kg IV single dose, 10 mg/kg

## CCc1cc2ncc(CN3CCN(c4ccc(C(=O)NC)nc4)CC3)cc2[nH]c1=O [Example 4, 5-[4-[(7-ethyl-6-oxo-5H-1,5-naphthyridin-3-yl)methyl]piperazin-1-yl]-N-methyl-pyridine-2-carboxamide]
[1]; [9]
  TGI % day 46: 28%
[1]; AZD5305 1 mg/kg QD
  percentage of mice achieving a complete response (tumor volume <20 mm^3): 0%
[2]; [9]
  TGI % day 19: 22%
[3]
  IC50: > 17 nM
[4]; [9]
  TGI % day 49: 18%
[5]; AZD5305 1 mg/kg PO QD (21 days), 1 mg/kg
  TGI % day 52: 26%
[6]
  IC50: > 30000 nM
[7]; AZD5305 0.1 mg/kg PO QD (21 days), 0.1 mg/kg
  TGI % day 28: −16%

## CNC(=O)c1ccc(N2CCN(Cc3ccc4nc(CCF)c(=O)[nH]c4c3)CC2)c(F)n1 [Example 26, 6-fluoro-5-[4-[[2-(2-fluoroethyl)-3-oxo-4H-quinoxalin-6-yl]methyl]piperazin-1-yl]-N-methyl-pyridine-2-carboxamide]
[3]
  IC50: 5 nM
[6]
  IC50: 23000 nM

## CNC(=O)c1ccc(N2CCN(Cc3ccc4nc(CC(F)(F)F)c(=O)[nH]c4c3)CC2)c(F)n1 [Example 28, 6-fluoro-N-methyl-5-(4-((3-oxo-2-(2,2,2-trifluoroethyl)-3,4-dihydroquinoxalin-6-yl)methyl)piperazin-1-yl) picolinamide]
[3]
  IC50: 27 nM
[6]
  IC50: > 30000 nM

## CCc1cc2ncc(CN3CCN(c4ccc(C(=O)NC)nc4C(F)(F)F)CC3)cc2[nH]c1=O [Example 30, 5-[4-[(7-ethyl-6-oxo-5H-1,5-naphthyridin-3-yl)methyl]piperazin-1-yl]-N-methyl-6 (trifluoromethyl)pyridine-2-carboxamide]
[3]
  IC50: 4 nM
[6]
  IC50: > 30000 nM
[8]
  IC50: > 40000 nM

## CCc1cc2ncc(CN3CCN(c4ccc(C(=O)NC)nc4F)CC3)cc2[nH]c1=O [Example 5, 5-[4-[(7-ethyl-6-oxo-5H-1,5-naphthyridin-3-yl)methyl]piperazin-1-yl]-6-fluoro-N-methyl-pyridine-2-carboxamide]
[3]
  IC50: 6 nM
[6]
  IC50: > 30000 nM

B1: DS-1062: anti-TROP2 antibody-drug conjugate; exatecan-derivative drug-linker conjugated to the anti-TROP2 antibody via a thioether bond; DAR ~4 (conjugate, chains of the INN, looked up)
VH: QVQLVQSGAEVKKPGASVKVSCKASGYTFTTAGMQWVRQAPGQGLEWMGWINTHSGVPKYAEDFKGRVTISADTSTSTAYLQLSSLKSEDTAVYYCARSGFGSSYWYFDVWGQGTLVTVSS
VL: DIQMTQSPSSLSASVGDRVTITCKASQDVSTAVAWYQQKPGKAPKLLIYSASYRYTGVPSRFSGSGSGTDFTLTISSLQPEDFAVYYCQQHYITPLTFGQGTKLEIK
modifications: exatecan-derivative drug-linker, DAR ~4
[1]; [10]
  TGI % day 46: 88%
[1]; DS-1062 10 mg/kg
  percentage of mice achieving a complete response (tumor volume <20 mm^3): 12.5%
[2]; [10]
  TGI % day 19: 82%
[4]; [10]
  TGI % day 49: 75%
[5]; [10]
  TGI % day 52: 84%
[7]; [10]
  TGI % day 28: 72%
